Test results: patent US10077237B2 (Sanofi, priority 2013, dated 2018)
“And” between values parts separate entries of the source, which are not always exact repeats. Equal values may be shown once. Where a name gives a salt, the structure may show the parent alone.

Target: T1, recombinant human AMPK complex, containing α2β1γ2 (Homo sapiens, UniProt P54646+Q9Y478)
T1 construct: hsAMPKα2-552-His, hsAMPKβ1-2-270 and hsAMPKγ-2-569 respectively; hsAMPKβ1-2-270; hsAMPKγ-2-569; His (C); made in house; host or cells: Spodoptera frugiperda Sf21 (baculovirus)
Experiment: AMPK in vitro activation assay (HTRF)
Format: biochemical
Details: for EC50: HTRF, recombinant human α2β1γ2 AMPK, 200 μM ATP, biotinylated ACC-CREBp peptide, repeat determinations on separate lines
Procedure, shortened: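 HTRF phosphorylation read-out (Eu-cryptate anti-pS133-CREB, streptavidin-XL665) after a 45 min, 37° C kinase step. This step was initiated by a solution with 200 μM ATP and 2 or 0.08 μM biotinylated ACC-CREBp peptide. Beforehand, compound sat 30 min at room temperature with baculovirus/Sf21 α2β1γ2 in pH 7.0 HEPES buffer; EC50 derived from activation over basal.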

[1] = potentiation of AMPK activity as percent over the basal signal (without compound)

T1 sequence (P54646 2-552): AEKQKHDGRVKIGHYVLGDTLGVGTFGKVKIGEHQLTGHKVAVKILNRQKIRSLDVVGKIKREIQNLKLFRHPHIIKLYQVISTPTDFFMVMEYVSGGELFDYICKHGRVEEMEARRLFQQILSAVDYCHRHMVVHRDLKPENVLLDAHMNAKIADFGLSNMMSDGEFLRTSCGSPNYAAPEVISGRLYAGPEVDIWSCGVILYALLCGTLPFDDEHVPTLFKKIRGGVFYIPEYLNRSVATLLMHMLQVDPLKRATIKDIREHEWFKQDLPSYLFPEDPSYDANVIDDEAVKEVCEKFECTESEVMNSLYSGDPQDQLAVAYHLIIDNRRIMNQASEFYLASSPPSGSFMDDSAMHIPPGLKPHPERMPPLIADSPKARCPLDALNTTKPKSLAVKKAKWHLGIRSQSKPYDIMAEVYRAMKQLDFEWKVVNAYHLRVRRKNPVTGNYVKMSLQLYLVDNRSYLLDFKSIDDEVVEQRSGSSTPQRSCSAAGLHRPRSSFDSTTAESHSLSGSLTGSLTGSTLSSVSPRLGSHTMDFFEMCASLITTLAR
T1 sequence (Q9Y478 2-270): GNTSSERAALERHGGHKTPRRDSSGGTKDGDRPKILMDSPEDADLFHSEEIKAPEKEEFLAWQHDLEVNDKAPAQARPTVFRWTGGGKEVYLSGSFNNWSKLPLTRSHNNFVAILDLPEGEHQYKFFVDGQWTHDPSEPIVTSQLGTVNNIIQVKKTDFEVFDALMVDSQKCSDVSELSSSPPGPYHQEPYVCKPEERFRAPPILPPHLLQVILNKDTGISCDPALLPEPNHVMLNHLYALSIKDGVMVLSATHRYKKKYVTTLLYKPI
T1 sequence (Q9UGJ0 2-569 partner limits assumed): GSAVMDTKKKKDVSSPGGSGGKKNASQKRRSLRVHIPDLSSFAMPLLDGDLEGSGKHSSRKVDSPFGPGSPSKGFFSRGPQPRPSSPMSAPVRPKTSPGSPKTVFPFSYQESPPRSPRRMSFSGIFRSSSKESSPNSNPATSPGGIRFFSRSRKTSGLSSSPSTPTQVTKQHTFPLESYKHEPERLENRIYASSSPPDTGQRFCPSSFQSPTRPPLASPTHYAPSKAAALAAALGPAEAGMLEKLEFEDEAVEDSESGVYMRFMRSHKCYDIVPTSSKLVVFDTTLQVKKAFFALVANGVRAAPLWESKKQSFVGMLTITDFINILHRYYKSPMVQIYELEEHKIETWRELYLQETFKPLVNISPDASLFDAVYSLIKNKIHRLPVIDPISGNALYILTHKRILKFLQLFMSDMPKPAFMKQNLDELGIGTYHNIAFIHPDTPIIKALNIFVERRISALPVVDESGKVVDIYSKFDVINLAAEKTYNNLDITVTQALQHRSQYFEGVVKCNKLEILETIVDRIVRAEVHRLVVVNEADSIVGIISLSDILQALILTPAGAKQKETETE

What does the source list for `CN1CCN(c2cccc(C(O)=C3C(=O)Nc4cc(Cl)c(-c5ccc(N6CCOCC6)cc5)cc43)c2)CC1` [Compound 93, 6-chloro-3-[hydroxy-[3-(4-methylpiperazin-1-yl)phenyl]methylene]-5-(4-morpholinophenyl)indolin-2-one hydrochloride]?
EC50: 58 nM; Emax [1]: 186%

How did the EC50 turn out when `O=C1Nc2cc(Cl)c(-c3ccc(C4(CO)CC4)cc3)cc2C1=C(O)c1cc(C2CC2)no1` [Compound 106, 6-chloro-3-[(3-cyclopropylisoxazol-5-yl)hydroxy-methylene]-5-[4-[1-(hydroxymethyl)cyclopropyl]phenyl]indolin-2-one] was run?
Its EC50 is 0.1 nM.

And the Emax [1]?
The Emax was 155%.

With `Cc1cc(C(O)=C2C(=O)Nc3cc(Cl)c(-c4ccc(O)c(F)c4)cc32)on1` [Compound 44, 6-Chloro-5-(3-fluoro-4-hydroxy-phenyl)-3-[1-hydroxy-1-(3-methyl-isoxazol-5-yl)-methylidene]-1,3-dihydro-indol-2-one] as the molecule, how does the EC50 read?
The EC50 was 470 nM.

And the Emax [1]?
Its Emax is 165%.

`COc1cc(C(O)=C2C(=O)Nc3cc(Cl)c(-c4ccc(C5(OC)CCC5)cc4)cc32)on1` [Compound 110, 6-chloro-3-[hydroxy-(3-methoxyisoxazol-5-yl)methylene]-5-[4-(1-methoxycyclobutyl)phenyl]indolin-2-one] was tested. Which EC50 did it give?
The EC50 was 6 nM.

What about the Emax [1] of the same molecule?
The Emax was 131%.

What does the source list for `Cc1nnc(C(O)=C2C(=O)Nc3cc(Cl)c(-c4ccc(N5CCOCC5)cc4)cc32)o1` [Compound 16, 6-Chloro-3-[1-hydroxy-1-(5-methyl-[1,3,4]oxadiazol-2-yl)-methylidene]-5-(4-morpholin-4-yl-phenyl)-1,3-dihydro-indol-2-one]?
EC50: 9 nM; Emax [1]: 268%

How did the EC50 turn out when `COc1cccc(-c2ccc(-c3cc4c(cc3Cl)NC(=O)C4=C(O)c3cc(C)no3)cc2)c1O` [Compound 5, 6-Chloro-5-(2′-hydroxy-3′-methoxy-biphenyl-4-yl)-3-[1-hydroxy-1-(3-methyl-isoxazol-5-yl)-meth-ylidene]-1,3-dihydro-indol-2-one] was run?
Its EC50 is 4 nM.

And the Emax [1]?
Its Emax is 193%.

`COc1cc(C(O)=C2C(=O)Nc3cc(Cl)c(-c4ccc(C5(CO)CC5)cc4F)cc32)on1` [Compound 111, 6-chloro-5-[2-fluoro-4-[1-(hydroxymethyl)cyclopropyl]phenyl]-3-[hydroxy-(3-methoxyisoxazol-5-yl)methylene]indolin-2-one] was tested. Which EC50 did it give?
Its EC50 is 1 nM.

What about the Emax [1] of the same molecule?
Its Emax is 175%.

With `CCOc1ccc(-c2cc3c(cc2Cl)NC(=O)C3=C(O)c2cc(C)no2)cc1` [Compound 66, 6-Chloro-5-(4-ethoxy-phenyl)-3-[1-hydroxy-1-(3-methyl-isoxazol-5-yl)-methylidene]-1,3-dihydro-indol-2-one] as the molecule, how does the EC50 read?
Its EC50 is 3070 nM.

And the Emax [1]?
The Emax was 192%.

`Cc1cc(C(O)=C2C(=O)Nc3cc(Cl)c(-c4ccc(OCc5ncccn5)cc4)cc32)on1` [Compound 101, 6-chloro-3-[hydroxy-(3-methylisoxazol-5-yl)methylene]-5-[4-(pyrimidin-2-ylmethoxy)phenyl]indolin-2-one] was tested. Which EC50 did it give?
The EC50 was 63 nM.

And the Emax [1]?
Its Emax is 159%.

With `Cc1cc(C(O)=C2C(=O)Nc3cc(Cl)c(-c4ccc(C5(CO)CC5)cc4F)cc32)on1` [Compound 85, 6-chloro-5-[2-fluoro-4-[1-(hydroxymethyl)cyclopropyl]phenyl]-3-[hydroxy-(3-methylisoxazol-5-yl)methylene]indolin-2-one] as the molecule, how does the EC50 read?
Its EC50 is 1 nM.

What about the Emax [1] of the same molecule?
Its Emax is 151%.

`O=C1Nc2cc(Cl)c(-c3ccc(C4(CO)CC4)cc3)cc2C1=C(O)c1cccc(F)c1` [Compound 27, 6-Chloro-3-[1-(3-fluoro-phenyl)-1-hydroxy-methylidene]-5-[4-(1-hydroxymethyl-cyclopropyl)-phenyl]-1,3-dihydro-indol-2-one] was tested. Which EC50 did it give?
Its EC50 is 2 nM.

And the Emax [1]?
The Emax was 129%.

Which EC50 does the source give for `COc1cc(C(O)=C2C(=O)Nc3cc(F)c(-c4ccc(-c5cccc(OC)c5O)cc4)c(F)c32)on1` [Compound 92, 4,6-difluoro-3-[hydroxy-(3-methoxyisoxazol-5-yl)methylene]-5-[4-(2-hydroxy-3-methoxy-phenyl)phenyl]indolin-2-one] here?
The EC50 was 0.3 nM.

What about the Emax [1] of the same molecule?
The Emax was 172%.

Which results are given for `COc1cccc(-c2ccc(-c3cc4c(cc3Cl)NC(=O)C4=C(O)c3cnc(C)s3)cc2)c1O` [Compound 51, 6-Chloro-5-(2′-hydroxy-3′-methoxy-biphenyl-4-yl)-3-[1-hydroxy-1-(2-methyl-thiazol-5-yl)-methylidene]-1,3-dihydro-indol-2-one]?
EC50: 11 nM; Emax [1]: 129%

For `COc1cc(C(O)=C2C(=O)Nc3cc(F)c(-c4ccc(-c5cccc(OC)c5O)cc4)cc32)on1` [Compound 71, 6-Fluoro-5-(2′-hydroxy-3′-methoxy-biphenyl-4-yl)-3-[1-hydroxy-1-(3-methoxy-isoxazol-5-yl)methylidene]-1,3-dihydro-indol-2-one], which EC50 is on record?
The EC50 was 2 nM.

And the Emax [1]?
Its Emax is 158%.

Which EC50 does the source give for `CC(C)(C)c1cc(C(O)=C2C(=O)Nc3cc(Cl)c(-c4ccc(C5(CO)CC5)cc4)cc32)on1` [Compound 76, 3-[1-(3-tert-Butyl-isoxazol-5-yl)-1-hydroxy-methylidene]-6-chloro-5-[4-(1-hydroxymethyl-cyclopropyl)phenyl]-1,3-dihydro-indol-2-one] here?
Its EC50 is 2 nM.

And the Emax [1]?
Its Emax is 124%.

`COc1cccc(C(O)=C2C(=O)Nc3cc(Cl)c(-c4ccc(N5CCOCC5)cc4)cc32)c1` [Compound 50, 6-Chloro-3-[1-hydroxy-1-(3-methoxy-phenyl)-methylidene]-5-(4-morpholin-4-yl-phenyl)-1,3-dihydro-indol-2-one] was tested. Which EC50 did it give?
The EC50 was 40 nM.

Which results are given for `Cc1cc(C(O)=C2C(=O)Nc3cc(Cl)c(-c4ccc(OCCCO)cc4)cc32)on1` [Compound 91, 6-chloro-3-[hydroxy-(3-methylisoxazol-5-yl)methylene]-5-[4-(3-hydroxypropoxy)phenyl]indolin-2-one]?
EC50: 4 nM; Emax [1]: 185%

`COc1cc(C(O)=C2C(=O)Nc3cc(Cl)c(-c4ccc(N5CCC(O)C5)cc4)cc32)on1` (stereo not drawn) [Compound 156, 6-chloro-3-[hydroxy-(3-methoxyisoxazol-5-yl)methylene]-5-[4-(3-hydroxypyrrolidin-1-yl)phenyl]indolin-2-one] was tested. Which EC50 did it give?
The EC50 was 2 nM.

What about the Emax [1] of the same molecule?
The Emax was 229%.

How did the EC50 turn out when `Cc1cc(C(O)=C2C(=O)Nc3cc(Cl)c(-c4ccc(OC(F)(F)F)cc4)cc32)on1` [Compound 58, 6-Chloro-3-[1-hydroxy-1-(3-methyl-isoxazol-5-yl)-methylidene]-5-(4-trifluoromethoxy-phenyl)-1,3-dihydro-indol-2-one] was run?
Its EC50 is 1400 nM.

What about the Emax [1] of the same molecule?
The Emax was 212%.

`COc1cc(C(O)=C2C(=O)Nc3cc(Cl)c(-c4ccc(OCCCN5CCOCC5)cc4)cc32)on1` [Compound 99, 6-chloro-3-[hydroxy-(3-methoxyisoxazol-5-yl)methylene]-5-[4-(3-morpholinopropoxy)phenyl]indolin-2-one] was tested. Which EC50 did it give?
Its EC50 is 5 nM.

What about the Emax [1] of the same molecule?
Its Emax is 187%.

With `Cc1cc(C(O)=C2C(=O)Nc3cc(Cl)c(-c4ccc(N(C)C)cc4)cc32)on1` [Compound 1, 6-Chloro-5-(4-dimethylamino-phenyl)-3-[1-hydroxy-1-(3-methyl-isoxazol-5-yl)-methylidene]-1,3-dihydro-indol-2-one] as the molecule, how does the EC50 read?
The EC50 was 21 nM.

And the “α2β1γ2 AMPK Emax” value [1]?
Its value is “(124 +/− 11) %”.

How did the EC50 turn out when `COc1cc(C(O)=C2C(=O)Nc3cc(Cl)c(-c4ccc(C5(CO)CC5)c(F)c4)cc32)on1` [Compound 96, 6-chloro-5-[3-fluoro-4-[1-(hydroxymethyl)cyclopropyl]phenyl]-3-[hydroxy-(3-methoxyisoxazol-5-yl)methylene]indolin-2-one] was run?
Its EC50 is 0.3 nM and 0.2 nM.
